# Experimental data from patent publication US20150224089A1, “COMBINATIONS OF IKKi/TBK1 INHIBITORS WITH BETA ADRENERGIC AGONISTS OR SYMPATHETIC NERVOUS SYSTEM ACTIVATORS” (THE REGENTS OF THE UNIVERSITY OF MICHIGAN, priority 2014, published 2015).
# Entries after “also recorded” stand apart in the source; their conditions may differ.
# Assays:
# 3T3-L1 adipocytes [1] = assay: cAMP levels in 3T3-L1 adipocytes; type: cell-based
# Description: (§1) (A) Glycerol release from 3T3-L1 adipocytes treated with or without different concentrations of TNFα as indicated for 24 hr followed by treatment with or without 10 μM ISO or 50 μM FSK. (B) cAMP levels from 3T3-L1 adipocytes treated with or without 100 ng/ml TNFα for 24 hr followed by treatment with or without 10 μM ISO or 50 μM FSK in the presence or absence of pretreatment of 50 μM Amlexanox (Am). (C) cAMP levels from 3T3-L1 adipocytes treated with or without 100 ng/ml TNFα for 24 hr followed by treatment with or without 50 μM FSK in the presence or absence of pretreatment of 1 μM CAY10576 (CAY). (D) Immunoblots of whole cell lysates from 3T3-L1 adipocytes treated with or without different concentrations of TNFα as same as FIG. 2A for 24 hr followed by treatment with or without 10 μM ISO or 50 μM FSK. Results were replicated in multiple experiments. ‘[’ indicates total HSL. ‘n.s.’ represents non-specific band. Arrow indicates CGI-58. (E) Immunoblots of whole cell lysates from 3T3-L1 adipocytes treated with or without 50 ng/ml TNFα or 100 μg/ml poly (I:C) for 24 hr followed by treatment with or without 10 μM ISO for 15 min in the presence or absence of pretreatment with increasing concentrations (0, 10, 50, and 200 μM) of amlexanox for 30 min.
# (A) cAMP levels from 3T3-L1 adipocytes expressing empty vector, Flag-IKKε, or Flag-TBK1 treated with or without 50 μM FSK, 250 μM IBMX, or together for 15 min. (B) cAMP levels from 3T3-L1 adipocytes expressing empty vector, Flag-IKKε, or Flag-TBK1 treated with or without 10 μM ISO or 50 μM FSK together with or without 10 μM Zardaverine (Zarda) for 15 min. (C) 32P phospho-image of in vitro kinase reaction using either immunoprecipitated HA-PDE3B from HEK293T cells or 1 μg MBP (myelin basic protein) as a substrate with recombinant kinases as indicated. (D) Immunoblots of immunoprecipitation with anti-HA antibodies followed by treatment with or without CIP (top panel) and whole cell lysates (bottom panel) from Cos-1 cells co-expressing HA-PDE3B with Flag-IKKε/TBK1 or Flag-IKKε/TBK1 K38A. D.E. stands for dark exposure and L.E. stands for light exposure. (E) Immunoblots of GST-14-3-3 pulldown from HEK293T cells co-expressing HA-PDE3B with Flag-TBK1 or Flag-TBK1 K38A.
# Obesity is accompanied by infiltration of proinflammatory macrophages into adipose tissue; these cells secrete inflammatory cytokines, such as TNFα, which generate insulin resistance by stimulating catabolic pathways (Hotamisligil, 2006; Lumeng et al., 2007; Ye and Keller, 2010; Ouchi et al., 2011; herein incorporated by reference in their entireties). Although TNFα is known to increase lipolysis in adipocytes (Zhang et al., 2002; Souza et al., 2003; Green et al., 2004; Plomgaard et al., 2008; herein incorporated by reference in their entireties), there is also evidence of a counterinflammatory response in obesity that may serve to repress energy expenditure (Gregor and Hotamisligil, 2011; Saltiel, 2012; Calay and Hotamisligil, 2013; Reilly et al., 2013; herein incorporated by reference in their entireties). Experiments were conducted during development of embodiments of the present invention using TNFα to model the inflammatory milieu of obese adipose tissue in cell culture to determine whether the cytokine might also regulate β-adrenergic signaling in this context. While short-term treatment with TNFα augmented the increase in cAMP produced by forskolin treatment, this effect declined after 12 hr. […] Thus, the catabolic effects of the proinflammatory cytokine TNFα in adipocytes are transient and followed by an inhibitory phase.
# Treatment of 3T3-L1 adipocytes with TNFα for 24 hr induced the expression of IKKε and increased TBK1 phosphorylation at the active site in a manner that was dependent on the activity of IKKβ and the NFκB pathway (Reilly et al., 2013; herein incorporated by reference in its entirety). […]
# 3T3-L1 adipocytes [2] = assay: Immunoblots of β-adrenergic/PKA signaling (HSL, perilipin, PKA substrate, p38 phosphorylation) in 3T3-L1 adipocytes; type: cell-based
# Description: as §1, with “Results were replicated in multiple experiments. ‘[’ indicates total HSL. ‘n.s.’ represents non-specific band.” left out
# Experiments were conducted during development of embodiments of the present invention to determine whether the repression of β-adrenergic sensitivity produced by longer-term treatment with TNFα is due to increased activity of the noncanonical IKKs.
Compound,"rescue of TNFα-decreased isoproterenol- and forskolin-stimulated cAMP production (3T3-L1 adipocytes [1]; preincubation with 50 μM amlexanox, 100 ng/ml TNFα 24 hr, 10 μM ISO or 50 μM FSK)","effect on TNFα inhibition of isoproterenol-stimulated β-adrenergic signaling (phospho-PKA substrate, phospho-HSL, phospho-perilipin) (3T3-L1 adipocytes [2]; amlexanox pretreatment 0, 10, 50, 200 μM for 30 min, 50 ng/ml TNFα 24 hr, 10 μM ISO 15 min)","phosphorylation of p38 in response to isoproterenol (3T3-L1 adipocytes [2]; amlexanox pretreatment 0, 10, 50, 200 μM, dose-dependent)","effect on Poly (I:C) inhibition of sensitivity to isoproterenol stimulation (3T3-L1 adipocytes [2]; amlexanox pretreatment, 100 μg/ml poly (I:C) 24 hr, less than with TNFα)","isoproterenol- and forskolin-stimulated cAMP production (3T3-L1 adipocytes [1]; TNFα for 24 hr (100 ng/ml), 10 μM ISO or 50 μM FSK)",increase in cAMP produced by forskolin treatment (3T3-L1 adipocytes [1]; short-term treatment with TNFα),"isoproterenol-stimulated β-adrenergic signaling (phosphorylation of HSL, perilipin, PKA substrate motif proteins) (3T3-L1 adipocytes [2]; TNFα for 24 hr, 10 μM ISO)"
"CC(C)c1ccc2oc3nc(N)c(C(=O)O)cc3c(=O)c2c1 [amlexanox, 2-amino-7-isopropyl-1-azaxanthone-3-carboxylic acid; 2-amino-7-isopropyl-5-oxo-5H-chromeno[2,3-b]pyridine-3-carboxylic acid]",largely rescued,blocked the inhibitory effect of TNFα,dramatically augmented,partially restored,–,–,–
TNFα,–,–,–,–,inhibited the production of the second messenger; also recorded: decreased isoproterenol- and forskolin-stimulated cAMP production,augmented,decreased
